Data taken from patent US10450549B2, “Aryloxyphenoxypropionate tolerance in turfrgass species and use of AAD1 as a selectable marker” (Dow AgroSciences, LLC, priority 2004, dated 2019).
Read-outs that look alike come from different tables or passages of the source.

Legend:
[1] = tested on: Arabidopsis thaliana var. Columbia; test: Arabidopsis plate test bioassay for herbicide degradation; assay type: in vivo; details: for IC50: 168 h
[2] = tested on: AAD1 (v3)-transformed T1 Arabidopsis; test: T1 Arabidopsis response to postemergence herbicide (2,4-D, dichlorprop, haloxyfop, fluroxypyr), % visual injury 2 WAT: AAD1 (v3) transformants; assay type: in vivo, Arabidopsis thaliana; details: for resistance/tolerance in AAD1 (v3)-transformed T1 Arabidopsis: haloxyfop 400-1,600 g ae/ha, fluroxypyr; for % Injury Ave / % Injury Range / % Injury 20-40% / % Injury <20% / % Injury >40%: AAD1 v3, 2 WAT; for % Injury 20-40% / % Injury <20% / % Injury >40%: number of individuals
Method: Freshly harvested T1 seed (transformed with native [AAD1 (v2)] or plant optimized [AAD1 (v3)] gene) was allowed to dry for 7 days at room temperature. T1 seed was sown in 26.5×51-cm germination trays (T.O. Plastics Inc., Clearwater, Minn.), each receiving a 200 mg aliquots of stratified T1 seed (˜10,000 seed) that had previously been suspended in 40 ml of 0.1% agarose solution and stored at 4° C. for 2 days to complete dormancy requirements and ensure synchronous seed germination.
Sunshine Mix LP5 (Sun Gro Horticulture Inc., Bellevue, Wash.) was covered with fine vermiculite and subirrigated with Hoagland's solution until wet, then allowed to gravity drain. Each 40 ml aliquot of stratified seed was sown evenly onto the vermiculite with a pipette and covered with humidity domes (KORD Products, Bramalea, Ontario, Canada) for 4-5 days. Domes were removed 1 day prior to initial transformant selection using glufosinate postemergence spray (selecting for the co-transformed PAT gene).
Five to six days after planting (DAP) and again 10 DAP, T1 plants (cotyledon and 2-4-1f stage, respectively) were sprayed with a 0.2% solution of Liberty herbicide (200 g ai/L glufosinate, Bayer Crop Sciences, Kansas City, Mo.) at a spray volume of 10 ml/tray (703 L/ha) using a DeVilbiss compressed air spray tip to deliver an effective rate of 280 g ai/ha glufosinate per application. Survivors (plants actively growing) were identified 5-7 days after the final spraying and transplanted individually into 3-inch pots prepared with potting media (Metro Mix 360). Transplanted plants were covered with humidity domes for 3-4 days and placed in a 22° C. growth chamber as before. Domes were subsequently removed and plants moved to the greenhouse (22+5° C., 50+30% RH, 14 h light:10 dark, minimum 500 μE/m^2s^1 natural+supplemental light) at least 1 day prior to testing for the ability of AAD1 (v3) (plant optimized gene) or AAD1 (v2) (native microbial gene) to provide phenoxy auxin herbicide resistance.
(§1) Random individual T1 plants selected for glufosinate resistance above were confirmed for expression of the PAT protein using a PAT ELISA kit (Part no. 7000045, Strategic Diagnostics, Inc., Newark, Del.) to non-destructively confirm fidelity of selection process (manufacturer's protocol). Plants were then randomly assigned to various rates of phenoxy herbicides (dichlorprop or 2,4-D). […] Elevated rates were applied in subsequent trials (50, 200, 800, or 3200 g ae/ha).
(§2) All auxin herbicide applications were made using the DeVilbiss sprayer as described above to apply 703 L/ha spray volume (0.4 ml solution/3-inch pot) or applied by track sprayer in a 187 L/ha spray volume. […] Dichlorprop used was technical grade (Sigma, St. Louis, Mo.) dissolved in DMSO and diluted in water (<1% DMSO final concentration). As herbicide rates increased beyond 800 g ae/ha, the pH of the spray solution became exceedingly acidic, burning the leaves of young, tender Arabidopsis plants and complicating evaluation of the primary effects of the herbicides. It became standard practice to apply these high rates of phenoxy herbicides in 200 mM Tris buffer (pH 9.0) to a final pH of ˜7-8.
(§3) Although Arabidopsis, being a dicot, is not an optimal system for testing ACCase-inhibiting AOPP grass herbicides, AAD1 (v3)-transformed T1 plants were subjected to elevated rates (400-1600 g ae/ha) of RS-haloxyfop acid (internally synthesized) that do cause growth abnormalities and death of wildtype Arabidopsis using the DeVilbiss sprayer as described above. Injury ratings were taken 7 and 14 days after treatment. Likewise, T1 individuals were treated with the pyridyloxyacetate auxin herbicide, fluroxypyr.
Table 16. […] Response is presented in terms of % visual injury 2 WAT. […] Since each T1 is an independent transformation event, one can expect significant variation of individual T1 responses within a given rate. An arithmetic mean and standard deviation is presented for each treatment. […]

Wildtype Arabidopsis = test: T1 Arabidopsis spray test, % visual injury 2 WAT: wildtype control; assay type: in vivo, Arabidopsis thaliana; details: Wildtype, 2 WAT; for % Injury 20-40% / % Injury <20% / % Injury >40%: number of individuals
Description: as §1, §2, §3
Table 16. […] Response is presented in terms of % visual injury 2 WAT. […] Since each T1 is an independent transformation event, one can expect significant variation of individual T1 responses within a given rate. An arithmetic mean and standard deviation is presented for each treatment. The range in individual response is also indicated in the last column for each rate and transformation. PAT/Cry1F-transformed Arabidopsis served as an auxin-sensitive transformed control. Wildtype Arabidopsis is untransformed.
(§4) Table 17. T1 Arabidopsis response to a range of dichlroprop rates applied postemergence. Response is presented in terms of % visual injury 2 WAT. […] Since each T1 is an independent transformation event, one can expect significant variation of individual T1 responses within a given rate. An arithmetic mean and standard deviation is presented for each treatment. The range in individual response is also indicated in the last column for each rate and transformation. PAT/Cry1F-transformed Arabidopsis served as an auxin-sensitive transformed control. Wildtype Arabidopsis is untransformed.
as §4, with “18.” for “17.”, “haloxyfop” for “dichlroprop”, “postemergence at artificially high rates attempting to show tolerance of the dicot Arabidopsis to the graminicide.” for “postemergence.”

Nc1c(Cl)c(F)nc(OCC(=O)O)c1Cl [Fluroxypyr]
IC50 ([1]; Arabidopsis thaliana, read-out: GR50, Chemical + AAD1 v1): 1.82 µM | IC50 ([1]; Arabidopsis thaliana, root length, 7 days, read-out: GR50, Chemical alone): 2.2 µM | IC50 ([1]; Escherichia coli, in Arabidopsis thaliana, cell lysate of E. coli pET vector without gene insert, read-out: GR50, Chemical + Blank Vector): 2.25 µM | GR50 ratio ([1]; enzyme-expressing lysate vs blank vector, ≥ 2 = threshold for activity loss): <1 | resistance/tolerance in AAD1 (v3)-transformed T1 Arabidopsis [2]: No resistance was observed

CC(Oc1ccc(Oc2ncc(C(F)(F)F)cc2Cl)cc1)C(=O)O (centres unmarked) [haloxyfop]
% Injury Ave (Wildtype Arabidopsis; 100 g ae/ha): 0.0% | % Injury Range (Wildtype Arabidopsis; 100 g ae/ha): 0% | % Injury Ave (Wildtype Arabidopsis; 200 g ae/ha): 0.0% | % Injury Range (Wildtype Arabidopsis; 200 g ae/ha): 0% | % Injury Ave (Wildtype Arabidopsis; 400 g ae/ha): 20.0% | % Injury Range (Wildtype Arabidopsis; 400 g ae/ha): 20% | % Injury Ave (Wildtype Arabidopsis; 800 g ae/ha): 73.3% | % Injury Range (Wildtype Arabidopsis; 800 g ae/ha): 70-85% | % Injury Ave (Wildtype Arabidopsis; 1600 g ae/ha): 93.3% | % Injury Range (Wildtype Arabidopsis; 1600 g ae/ha): 80-100% | % Injury 20-40% (Wildtype Arabidopsis; 100 g ae/ha): 0 | % Injury <20% (Wildtype Arabidopsis; 100 g ae/ha): 3 | % Injury >40% (Wildtype Arabidopsis; 100 g ae/ha): 0 | % Injury 20-40% (Wildtype Arabidopsis; 200 g ae/ha): 0 | % Injury <20% (Wildtype Arabidopsis; 200 g ae/ha): 3 | % Injury >40% (Wildtype Arabidopsis; 200 g ae/ha): 0 | % Injury 20-40% (Wildtype Arabidopsis; 400 g ae/ha): 3 | % Injury <20% (Wildtype Arabidopsis; 400 g ae/ha): 0 | % Injury >40% (Wildtype Arabidopsis; 400 g ae/ha): 0 | % Injury 20-40% (Wildtype Arabidopsis; 800 g ae/ha): 0 | % Injury <20% (Wildtype Arabidopsis; 800 g ae/ha): 0 | % Injury >40% (Wildtype Arabidopsis; 800 g ae/ha): 3 | % Injury 20-40% (Wildtype Arabidopsis; 1600 g ae/ha): 0 | % Injury <20% (Wildtype Arabidopsis; 1600 g ae/ha): 0 | % Injury >40% (Wildtype Arabidopsis; 1600 g ae/ha): 3 | % Injury Ave ([2]; 100 g ae/ha): 0.0% | % Injury Range ([2]; 100 g ae/ha): 0% | % Injury Ave ([2]; 200 g ae/ha): 0.0% | % Injury Range ([2]; 200 g ae/ha): 0% | % Injury Ave ([2]; 400 g ae/ha): 6.3% | % Injury Range ([2]; 400 g ae/ha): 0-20% | % Injury Ave ([2]; 800 g ae/ha): 46.3% | % Injury Range ([2]; 800 g ae/ha): 0-85% | % Injury Ave ([2]; 1600 g ae/ha): 65.0% | % Injury Range ([2]; 1600 g ae/ha): 0-100% | resistance/tolerance in AAD1 (v3)-transformed T1 Arabidopsis [2]: increased tolerance | % Injury 20-40% ([2]; 100 g ae/ha): 0 | % Injury <20% ([2]; 100 g ae/ha): 4 | % Injury >40% ([2]; 100 g ae/ha): 0 | % Injury 20-40% ([2]; 200 g ae/ha): 0 | % Injury <20% ([2]; 200 g ae/ha): 4 | % Injury >40% ([2]; 200 g ae/ha): 0 | % Injury 20-40% ([2]; 400 g ae/ha): 1 | % Injury <20% ([2]; 400 g ae/ha): 3 | % Injury >40% ([2]; 400 g ae/ha): 0 | % Injury 20-40% ([2]; 800 g ae/ha): 1 | % Injury <20% ([2]; 800 g ae/ha): 1 | % Injury >40% ([2]; 800 g ae/ha): 2 | % Injury 20-40% ([2]; 1600 g ae/ha): 0 | % Injury <20% ([2]; 1600 g ae/ha): 1 | % Injury >40% ([2]; 1600 g ae/ha): 3
